From US10123995B2, “Factor XIa inhibitors” (MERCK SHARP & DOHME CORP., priority 2015, dated 2018)

Tests used:
[1] = molecular target: purified human Factor XIa (Homo sapiens (Human), UniProt P03951); assay: Factor XIa Assay; format: biochemical; details: Factor XIa inhibition; substrate Z-Gly-Pro-Arg-AFC, pH 7.4; read-out: hFXIa IC50
Description: The effectiveness of a compound of the present invention as an inhibitor of Coagulation Factor XIa can be determined using a relevant purified serine protease, and an appropriate synthetic substrate. The rate of hydrolysis of the chromogenic or fluorogenic substrate by the relevant serine protease was measured both in the absence and presence of compounds of the present invention. Assays were conducted at room temperature or at 37° C. […] A decrease in the rate of fluorescence change in the presence of inhibitor is indicative of enzyme inhibition. Such methods are known to one skilled in the art. […]
Factor XIa determinations were made in 50 mM HEPES buffer at pH 7.4 containing 150 mM NaCl, 5 mM CaCl2, and 0.1% PEG 8000 (polyethylene glycol; JT Baker or Fisher Scientific). Determinations were made using purified human Factor XIa at a final concentration of 40 pM (Sekisui Diagnostics) and the synthetic substrate, Z-Gly-Pro-Arg-AFC, TFA salt (Sigma #C0980) at a concentration of 100 μM.
Activity assays were performed by diluting a stock solution of substrate at least tenfold to a final concentration ≤0.1 Km into a solution containing enzyme or enzyme equilibrated with inhibitor. Times required to achieve equilibration between enzyme and inhibitor were determined in control experiments. Initial velocities of product formation in the absence (Vo) or presence of inhibitor (Vi) were measured. Assuming competitive inhibition, and that unity is negligible compared Km/[S], [I]/e, and [I]/e (where [S], [I], and e respectively represent the total concentrations, of substrate, inhibitor and enzyme), the equilibrium constant (Ki) for dissociation of the inhibitor from the enzyme can be obtained from the dependence of Vo/Vi on [I] shown in the following equation. Vo/Vi=1+[I]/Ki

[2] = molecular target: purified Human plasma kallikrein (Homo sapiens (Human), UniProt P03952); assay: Kallikrein Assay; format: biochemical; details: table titled Kalikrein inhibition (column head prints hFXIa), substrate Acetyl-K-P-R-AFC, pH 7.4
Chain of purified Human plasma kallikrein (P03952 391-638): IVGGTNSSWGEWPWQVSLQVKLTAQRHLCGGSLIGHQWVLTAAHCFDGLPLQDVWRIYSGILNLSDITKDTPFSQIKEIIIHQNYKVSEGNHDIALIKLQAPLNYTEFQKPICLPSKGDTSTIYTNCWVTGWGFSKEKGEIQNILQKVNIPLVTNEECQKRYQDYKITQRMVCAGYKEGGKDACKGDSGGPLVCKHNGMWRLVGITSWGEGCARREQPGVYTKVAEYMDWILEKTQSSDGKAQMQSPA
Chain of purified Human plasma kallikrein (P03952 20-390 partner): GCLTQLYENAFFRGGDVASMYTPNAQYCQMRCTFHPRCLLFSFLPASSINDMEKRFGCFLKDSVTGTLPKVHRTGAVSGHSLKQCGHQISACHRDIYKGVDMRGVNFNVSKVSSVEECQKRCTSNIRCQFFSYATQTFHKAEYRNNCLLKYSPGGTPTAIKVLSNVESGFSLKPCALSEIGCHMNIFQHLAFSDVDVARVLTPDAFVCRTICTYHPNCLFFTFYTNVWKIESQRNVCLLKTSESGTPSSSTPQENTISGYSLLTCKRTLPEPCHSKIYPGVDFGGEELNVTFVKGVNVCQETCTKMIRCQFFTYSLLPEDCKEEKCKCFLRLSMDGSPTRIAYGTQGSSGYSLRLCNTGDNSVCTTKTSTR
Description: The effectiveness of a compound of the present invention as an inhibitor of Kallikrein can be determined using a relevant purified serine protease, and an appropriate synthetic substrate. The rate of hydrolysis of the chromogenic or fluorogenic substrate by the relevant serine protease was measured both in the absence and presence of compounds of the present invention. Assays were conducted at room temperature or at 37° C. […] A decrease in the rate of fluorescence change in the presence of inhibitor is indicative of enzyme inhibition. Such methods are known to one skilled in the art. The results of this assay are expressed as the inhibitory constant, Ki.
Kallikrein determinations were made in 50 mM HEPES buffer at pH 7.4 containing 150 mM NaCl, 5 mM CaCl2, and 0.1% PEG 8000 (polyethylene glycol; Fisher Scientific). Determinations were made using purified Human plasma kallikrein at a final concentration of 0.5 nM (Enzyme Research Laboratories) and the synthetic substrate, Acetyl-K-P-R-AFC (Sigma # C6608) at a concentration of […].
Activity assays were performed by diluting a stock solution of substrate at least tenfold to a final concentration ≤0.2 Km into a solution containing enzyme or enzyme equilibrated with inhibitor. Times required to achieve equilibration between enzyme and inhibitor were determined in control experiments. The reactions were performed under linear progress curve conditions and fluorescence increase measured at 405 Ex/510 Em nm. Values were converted to percent inhibition of the control reaction (after subtracting 100% Inhibition value). IC50 was determined by inflection point from a four parameter logistic curve fit. Ki was calculated using the Cheng Prusoff equation, Ki=IC50/(1+([S]/Km)).

Chain of purified human Factor XIa (P03951 388-625): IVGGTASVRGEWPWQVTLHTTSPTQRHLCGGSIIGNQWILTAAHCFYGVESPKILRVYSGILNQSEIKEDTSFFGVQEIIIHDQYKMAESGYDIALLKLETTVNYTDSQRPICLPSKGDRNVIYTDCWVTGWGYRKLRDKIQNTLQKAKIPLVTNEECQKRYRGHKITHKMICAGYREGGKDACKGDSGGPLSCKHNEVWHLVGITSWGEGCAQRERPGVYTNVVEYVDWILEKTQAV
Chain of purified human Factor XIa (P03951 19-387 partner): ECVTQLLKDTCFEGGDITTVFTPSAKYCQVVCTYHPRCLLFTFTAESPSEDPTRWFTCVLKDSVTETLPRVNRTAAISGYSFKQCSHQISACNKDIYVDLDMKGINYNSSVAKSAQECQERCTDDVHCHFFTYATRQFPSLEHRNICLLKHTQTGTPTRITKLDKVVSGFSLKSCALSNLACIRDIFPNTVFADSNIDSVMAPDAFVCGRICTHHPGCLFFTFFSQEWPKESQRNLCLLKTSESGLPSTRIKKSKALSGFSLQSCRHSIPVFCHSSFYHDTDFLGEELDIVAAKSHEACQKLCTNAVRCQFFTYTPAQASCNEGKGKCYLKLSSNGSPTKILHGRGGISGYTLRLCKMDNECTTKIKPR

Row | SMILES | IC50 [1] | IC50 [2]
1 | O=C(O)c1ccc(NC(=O)C2(O)CC(F)c3cc(-c4cc(Cl)ccc4-n4cnnn4)c[n+]([O-])c32)cc1 (single isomer, unassigned) [Example 13, 4-[({3-[5-Chloro-2-(1H-tetrazol-1-yl)phenyl]-5-fluoro-7-hydroxy-1-oxido-6,7-dihydro-5H-cyclopenta[b]pyridin-7-yl}carbonyl)amino]benzoic acid] | 0.0037 µM | 0.202 µM
2 | O=C(O)c1ccc(NC(=O)C2CCc3cc(-c4cc(Cl)ccc4-n4cnnn4)c[n+]([O-])c32)cc1 (stereo not shown) [Example 1, 4-[({3-[5-chloro-2-(1H-tetrazol-1-yl)phenyl]-1-oxido-6,7-dihydro-5H-cyclopenta[b]pyridin-7-yl}carbonyl)amino]benzoic acid] | 0.0038 µM | 0.473 µM
